# Data: patent US6235707A, “Anticoagulant peptidyl-arginine aldehyde derivatives” (Gyogyszerkutato Intezet Kft., priority 1996, dated 2001)
# pIC50: −log10 of the molar value. Read-outs that look alike come from different tables or passages of the source. Square brackets hold non-standard residues; d marks the D form. Peptide text beside a SMILES is read from it. * marks the point of attachment. dCba = N[C@H](CC1CCC1)C(=O)O; Moc = COC(=O)*
# Legend:
# [1] = target: thrombin (Homo sapiens, UniProt P00734); experiment: thrombin time (TT) plasma clotting test; format: biochemical
# Method: (§1) Anticoagulant activity (i.e. inhibition of the proteolytic reactions in the process) is measured by anticoagulant tests, e.g. in the thrombin time (TT), activated partial thromboplastin time (APTT) and prothrombin time (PT) tests [E. J. W. Bovie et al., Mayo Clinic Laboratory Manual of Haemostasis; W. B. Saunders Co., Philadelphia (1971)]. Plasma, inhibited in spontaneous coagulation, e.g. citrate-plasma, is made to coagulate and the required coagulation time is measured. Upon the action of anticoagulants the coagulation time is prolonged proportionally to the inhibition of the reaction(s) in the process. The anticoagulant effect can be characterised by the substance concentration required to prolong the coagulation time twofold compared to the control (IC50). The effect of anticoagulants on individual coagulant proteases is measured by the amidolytic method [R. Lottenberg et al., Methods in Enzymol. 80, 341 (1981); G. Cleason, Blood Coagulation and Fibrinolysis 5, 411 (1994)]. The isolated active factor (e.g. thrombin, fXa) and its chromogen or fluorogen peptide-amide substrate are reacted in the presence or absence of the inhibitor, resp. The enzyme inhibiting action is characterised by the inhibitory constant (IC50) measured during amidolysis.
# (§2) In the TT test coagulation is initiated by the thrombin added to the citrate plasma. In the system 22 pmol/ml of thrombin is functioning and its inhibition can be measured on the fibrinogen (one of the natural substrates of thrombin) in the presence of plasma components. In the APTT and PT tests the full coagulation process takes place. Depending on the activator fX is activated either by the extrinsic or the intrinsic pathway. The generated fXa activates prothrombin to thrombin which, in turn, triggers plasma coagulation. The coagulation time is prolonged if the enzymes or one of them is inhibited by the inhibitor. In the APTT and PT tests at most 40 pmol/ml Xa can be generated (this is the full amount of factor X present in both systems) while 150 pmol/ml (APTT) and 350 pmol/ml (PT) of thrombin are generated [B. Kaiser et al., Thromb. Res. 65, 157 (1992)].
# (§3) The in vitro anticoagulant effects of the compounds of general formula (I) was measured by the prothrombin time (PT), activated partial thromboplastin time (APTT) and thrombin time (TT) tests [D. Bagdy et al., Thromb. Haemost. 67, 325 (1992)]. The fxa-inhibiting effect of the compounds was also determined using the Bz-Ile-Glu-Gly-Arg-pNA chromogen substrate (see method M6).
# [2] = target: T1, isolated human fXa (Homo sapiens, UniProt P00742); experiment: fXa inhibition in solution, amidolytic method on Bz-Ile-Glu-Gly-Arg-pNA chromogen substrate (Method M6); format: biochemical; conditions: for pIC50: isolated human fXa, Bz-Ile-Glu-Gly-Arg-pNA
# T1 construct: The isolated active factor (e.g. thrombin, fXa) and its chromogen or fluorogen peptide-amide substrate are reacted; purchased SIGMA
# Method: as §1, §3
# Determination of Factor Xa Inhibition in Solution on a 96-well Microtitre Plate
# a) By means of phosphate buffer (0.1M sodium phosphate and 0.05M sodium chloride, pH=7.4) 1.3 E/ml solution is prepared from human factor Xa (SIGMA), and 0.1-1.0-10 and 100 μg/ml solutions from the peptide inhibitors. The Bz-Ile-Glu-Gly-Arg-pNA substrate is used in distilled water solution ([…]).
# b) From the control and the peptide inhibitor solutions (3 parallel samples of each concentration) 30-30 μl aliquots are placed into the wells. 30 μl of factor Xa, 90 μl of buffer and 150 μl of substrate are added to the peptide solution and the extinction is determined after 10 min. at 405 nm. Thereafter the steps are the same as in M2/c.
# [3] = system: citrate plasma; experiment: prothrombin time (PT) plasma clotting test; format: biochemical
# Method: as §1, §2, §3
# [4] = system: citrate plasma; experiment: activated partial thromboplastin time (APTT) plasma clotting test; format: biochemical
# Method: as §1, §2, §3
# [5] = target: T2, clot-bound thrombin (Homo sapiens, UniProt P00734); experiment: inhibition of plasma clot-bound thrombin (Methods M1, M3); format: biochemical; conditions: clot from platelet-rich human plasma; Tos-Gly-Pro-Arg-pNA substrate
# T2 construct: from tissue; host or cells: clot of recalcified human platelet-rich plasma
# Method: (§4) Plasma-clot was obtained by recalcificating platelet-rich human plasma, and fibrin gel by clotting human fibrinogen with human thrombin. For the activity measures of fXa and thrombin Z-D-Arg-Gly-Arg-pNA or Tos-Gly-Pro-Arg-pNA substrates were used in agreement with Methods M1-M3.
# Preparation of Clots from Human Plasma
# a) Platelet-rich plasma is prepared by centrifuging a 9:1 mixture of human blood and 3.8% sodium citrate solution for 5 min. at 240×g.
# b) 200 μl platelet-rich plasma and 80 μl 40 mM CaCl2 solution are allowed to stand at room temperature for 1 hour. The thus-formed clot is washed with 6×2 ml of 0.9% NaCl solution with gentle stirring to remove the residual enzymes (thrombin and factor Xa). The washing medium is assayed for thrombin-like activity as follows:
# c) To 400 μl of washing medium 100 μl of 1 mM Tos-Gly-Pro-Arg-pNA substrate solution is added, the mixture is incubated for 30 min at 37° C., then the reaction is stopped with 100 μl of 50% acetic acid. From this mixture 150 μl aliquots are applied onto a 96-well microtitre plate and the extinction coefficients are measured at 405 nm (ELISA READER SLT Laborinstrument GmbH, Austria). In case of efficient washing the extinction coefficient is smaller than 5% of that of the control.
# Determination of the Inhibition of Clot-bound Thrombin
# a) Solutions are made from the peptide inhibitors according to Method M2/a.
# b) After draining off the washing medium the clots (Method M1) are mixed with 400 μl of peptide solution (3 parallel samples with each concentration), then the samples are incubated for 5 min. at 37° C. together with a separate 400 μl buffer serving as control. Then 100 μl […] 1 mM Tos-Gly-Pro-Arg-pNA substrate solution is added and the incubation continued for further 30 min. at 37° C. The experiment is continued according to M2/c.
# [6] = target: T3, fibrin gel-bound thrombin (Homo sapiens, UniProt P00734); experiment: inhibition of fibrin gel-bound thrombin (Methods M4, M5); format: biochemical; conditions: human fibrinogen clotted with human thrombin; Tos-Gly-Pro-Arg-pNA substrate
# T3 construct: purchased SIGMA
# Method: as §4
# Preparation of Fibrin Clots
# a) To each reaction vessel 200 μl of human fibrinogen (SIGMA), 25 μl of 25 NIH/E/ml human thrombin (SIGMA) and 40 μl of 100 mM CaCl2 solution is placed and the mixtures are allowed to stand for 1 hour at 20-22° C. The fibrin clots are washed with isotonic NaCl-solution (3×2 ml) under gentle stirring to remove traces of thrombin and sedimented for 5 min. The effectiveness of the washing can be checked by the method M1/c.
# Determination of Inhibition of Fibrin-clot Bound Thrombin
# a) 0.1-1.0-10 and 100 μg/ml solutions are made from the peptide inhibitors with Hepes/NaCl buffer (0.001 M Hepes and 0.1 M NaCl, pH=7.4).
# b) Measurements are continued according to M3/b.
# [7] = target: urokinase (UK) (Homo sapiens, UniProt P00749); experiment: fibrin-plate method, plasmin formation induced by urokinase; format: biochemical; conditions: for pIC50: fibrin plate, hydrolysed area reduced to 50% of control; for B: relative efficiency, UK: related to the activity of C1 (1/IC50 = 1)
# From the text: (§5) The inhibitory effect of the new compounds of the invention on plasmin (PL) as well as on plasmin formation induced by tissue plasminogen activator (tPA) and urokinase (UK) was examined by the fibrin-plate method [D. Bagdy et al.: Thromb. Haemost. 67, 325 (1992)]. Compounds C1 and C5 served as controls. […] V. Jackson et al.: J. Cardiovasc. Pharmacol. 21, 587 (1993))]. In Table 4 the results obtained with the new compounds 1 and 2 as well as those with controls C1 and C5 are presented as an example.
# [8] = target: plasmin (PL) (Homo sapiens, UniProt P00747); experiment: fibrin-plate method, plasmin; format: biochemical; conditions: for pIC50: fibrin plate, hydrolysed area reduced to 50% of control; for B: relative efficiency, PL: related to the activity of C1 (1/IC50 = 1)
# From the text: as §5
# [9] = target: tissue plasminogen activator (tPA) (Homo sapiens, UniProt P00750); experiment: fibrin-plate method, plasmin formation induced by tPA; format: biochemical; conditions: for pIC50: fibrin plate, hydrolysed area reduced to 50% of control; for B: relative efficiency, tPA: related to the activity of C1 (1/IC50 = 1)
# From the text: as §5
# [10] = C. V. Jackson et al. 1993; cited from earlier work
# [11] = Table 3, twofold prolongation compared to control, read-out: A: anticoagulant IC50, TT
# [12] = Table 3, read-out: B: fXa inhibiting IC50
# [13] = Table 3, twofold prolongation compared to control, read-out: A: anticoagulant IC50, PT
# [14] = Table 3, twofold prolongation compared to control, read-out: A: anticoagulant IC50, APTT
# [15] = Table 2, concentration prolonging clotting time twofold, read-out: A: anticoagulation IC50, TT
# [16] = Table 2, read-out: B: fXa inhibiting effect IC50
# [17] = Table 2, concentration prolonging clotting time twofold, read-out: A: anticoagulation IC50, PT
# [18] = Table 2, concentration prolonging clotting time twofold, read-out: A: anticoagulation IC50, APTT
# tissue plasminogen activator (tPA), sequence (P00750 36-562, species assumed): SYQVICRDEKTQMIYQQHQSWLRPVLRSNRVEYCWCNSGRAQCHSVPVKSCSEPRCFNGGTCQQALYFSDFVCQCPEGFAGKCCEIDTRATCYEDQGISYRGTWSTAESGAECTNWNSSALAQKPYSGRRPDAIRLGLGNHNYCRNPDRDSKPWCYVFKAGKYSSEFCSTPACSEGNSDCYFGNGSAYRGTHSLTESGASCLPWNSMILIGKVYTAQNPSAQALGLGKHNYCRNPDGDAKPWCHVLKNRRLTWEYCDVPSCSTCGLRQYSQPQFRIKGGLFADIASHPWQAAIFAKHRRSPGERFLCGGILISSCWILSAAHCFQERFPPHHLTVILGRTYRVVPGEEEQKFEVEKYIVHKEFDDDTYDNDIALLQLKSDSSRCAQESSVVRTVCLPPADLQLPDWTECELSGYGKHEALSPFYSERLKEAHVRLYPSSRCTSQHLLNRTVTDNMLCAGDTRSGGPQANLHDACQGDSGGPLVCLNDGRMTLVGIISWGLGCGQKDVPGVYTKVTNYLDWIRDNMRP
# T1 sequence (P00742 235-488 limits assumed): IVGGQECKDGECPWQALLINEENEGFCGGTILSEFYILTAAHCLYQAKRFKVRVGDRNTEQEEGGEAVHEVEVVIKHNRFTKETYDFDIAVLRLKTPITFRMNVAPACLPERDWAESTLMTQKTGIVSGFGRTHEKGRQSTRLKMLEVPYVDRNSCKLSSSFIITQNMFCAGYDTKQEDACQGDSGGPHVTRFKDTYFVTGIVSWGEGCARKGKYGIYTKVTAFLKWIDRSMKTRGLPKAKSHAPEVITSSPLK
# T1 sequence (P00742 41-179 partner limits assumed): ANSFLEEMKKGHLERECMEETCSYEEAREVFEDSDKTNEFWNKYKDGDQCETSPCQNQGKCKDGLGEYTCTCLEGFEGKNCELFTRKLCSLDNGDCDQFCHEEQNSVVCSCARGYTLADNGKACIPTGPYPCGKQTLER
# plasmin (PL), sequence (P00747 581-810 limits assumed, species assumed): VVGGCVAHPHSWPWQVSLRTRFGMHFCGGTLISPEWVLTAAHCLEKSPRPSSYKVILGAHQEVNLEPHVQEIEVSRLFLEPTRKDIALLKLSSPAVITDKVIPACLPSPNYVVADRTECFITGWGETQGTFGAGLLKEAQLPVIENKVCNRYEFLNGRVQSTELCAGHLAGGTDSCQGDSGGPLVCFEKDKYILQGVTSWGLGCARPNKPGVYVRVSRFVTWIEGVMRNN
# plasmin (PL), sequence (P00747 97-580 partner limits assumed, species assumed): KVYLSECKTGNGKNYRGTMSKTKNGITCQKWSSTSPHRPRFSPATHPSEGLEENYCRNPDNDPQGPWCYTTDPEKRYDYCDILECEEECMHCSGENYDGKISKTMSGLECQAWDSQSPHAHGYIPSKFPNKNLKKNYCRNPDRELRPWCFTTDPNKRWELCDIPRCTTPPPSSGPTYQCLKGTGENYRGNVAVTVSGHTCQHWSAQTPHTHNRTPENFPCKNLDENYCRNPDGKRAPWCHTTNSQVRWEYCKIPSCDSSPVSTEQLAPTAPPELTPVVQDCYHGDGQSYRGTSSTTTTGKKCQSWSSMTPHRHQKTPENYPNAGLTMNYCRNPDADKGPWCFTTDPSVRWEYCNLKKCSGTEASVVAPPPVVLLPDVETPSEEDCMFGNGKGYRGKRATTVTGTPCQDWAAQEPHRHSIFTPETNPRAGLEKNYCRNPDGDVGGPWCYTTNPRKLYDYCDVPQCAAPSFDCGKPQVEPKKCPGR
"pIC50 [1, 11]","pIC50 [2, 12]","pIC50 [3, 13]","pIC50 [4, 14]","B: relative efficiency, UK [7]","B: relative efficiency, PL [8]","B: relative efficiency, tPA [9]",SMILES,further results
6.89,7.17,5.83,6.30,,,,"CCOC(=O)NC(CC1CCC1)C(=O)N1CCC[C@H]1C(=O)N[C@H](C=O)CCCNC(=N)N (mixture of isomers) [Example C8, Ethoxycarbonyl-3-cyclobutyl-DL-alanyl-L-prolyl-L-arginine aldehyde]",
6.59,7.37,5.72,6.32,,,,"CCOC(=O)NC(CC1CCCC1)C(=O)N1CCC[C@H]1C(=O)N[C@H](C=O)CCCNC(=N)N (mixture of isomers) [Example C9, Ethoxycarbonyl-3-cyclopentyl-DL-alanyl-L-prolyl-L-arginine aldehyde]",
6.96,6.41,5.95,6.60,0.5,0.23,1.4,"COC(=O)N[C@H](CC1CCC1)C(=O)N1CCC[C@H]1C(=O)N[C@H](C=O)CCCNC(=N)N [Example 2, methoxycarbonyl-3-cyclobutyl-D-alanyl-L-prolyl-L-arginine aldehyde] (Moc-[dCba]-Pro-Arg-aldehyde)","pIC50 [5]: 6.17; pIC50 [6]: 6.19; pIC50 [7]: 3.82; activity against UK, times lower than that of compound C5 ([7]; text b147, third of three enzymes): 39 times; pIC50 [8]: 3.63; activity against PL, times lower than that of compound C5 ([8]; text b147, first of three enzymes): 3.2 times; pIC50 [9]: 4.04; activity against tPA, times lower than that of compound C5 ([9]; text b147, second of three enzymes): 4.5 times"
7.00,7.57,5.85,6.62,1.8,0.55,3.5,"CCOC(=O)N[C@H](CC1CCCC1)C(=O)N1CCC[C@H]1C(=O)N[C@H](C=O)CCCNC(=N)N [Example 4, Ethoxycarbonyl-3-cyclopentyl-D-alanyl-L-prolyl-L-arginine aldehyde]",pIC50 [5]: 6.31; pIC50 [6]: 6.17; pIC50 [7]: 4.34; pIC50 [8]: 4.01; pIC50 [9]: 4.42
,,,,27.3,4.5,22.0,"CC(C)(C)OC(=O)N[C@H](Cc1ccccc1)C(=O)N1CCC[C@H]1C(=O)N[C@H](C=O)CCCNC(=N)N [Example C5, BOC-D-Phe-Pro-Arg-H]","pIC50 [1, 15]: 6.70; antifibrinolytic effect in vivo [10]: well detectable; pIC50 [2, 16]: 6.04; fXa IC50, times lower than C1 ([2]; text b89): 10 times; pIC50 [3, 17]: 5.64; pIC50 [4, 18]: 6.12"
6.89,6.04,5.72,6.42,,,,"CCOC(=O)N[C@H](Cc1ccccc1)C(=O)N1CCC[C@H]1C(=O)N[C@H](C=O)CCCNC(=N)N [Example C6, Ethoxycarbonyl-3-phenyl-D-alanyl-L-prolyl-L-arginine aldehyde]",
,,,,,,,"COC(=O)N[C@H](Cc1ccccc1)C(=O)N1CCC[C@H]1C(=O)N[C@H](C=O)CCCNC(=N)N [Example C7, Methoxycarbonyl-3-phenyl-D-alanyl-L-prolyl-L-arginine aldehyde]","pIC50 [1, 15]: 6.70; pIC50 [2, 16]: 6.89; pIC50 [3, 17]: 5.71; pIC50 [4, 18]: 6.54"

SMILES,"pIC50 [1, 11]","pIC50 [2, 12]","pIC50 [3, 13]","pIC50 [4, 14]","B: relative efficiency, UK [7]","B: relative efficiency, PL [8]","B: relative efficiency, tPA [9]",further results
"CCOC(=O)NC(C(=O)N1CCC[C@H]1C(=O)N[C@H](C=O)CCCNC(=N)N)C1CCC1 (mixture of isomers) [Example C10, Ethoxycarbonyl-DL-cyclobutyl-glycyl-L-prolyl-L-arginine aldehyde]",6.06,7.09,5.21,6.11,,,,
